Laboratory results taken from patent US5654411A, “Process for preparing 4-deoxyerythromycin derivatives” (Abbott Laboratories, priority 1995, dated 1997).

Tests used:
[1] = system: Pseudomonas aeruginosa BMH10; test: Antibacterial activity (MIC), agar dilution method; format: cell-based; conditions: unit assumed
Description: (§1) Compounds of the invention were next tested for antibacterial potency, such activity being regarded as an undesirable side effect if prokinetic therapy. Assays were conducted using methodology well-known in the art (the agar dilution method).

[2] = system: Pseudomonas aeruginosa DPHD-5263; test: Antibacterial activity (MIC), agar dilution method; format: cell-based; conditions: unit assumed
Description: as §1

[3] = system: Streptococcus bovis A5169; test: Antibacterial activity (MIC), agar dilution method; format: cell-based; conditions: unit assumed
Description: as §1

[4] = system: Staphylococcus epidermidis 3519; test: Antibacterial activity (MIC), agar dilution method; format: cell-based; conditions: unit assumed
Description: as §1

[5] = system: Streptococcus pyogenes EES61; test: Antibacterial activity (MIC), agar dilution method; format: cell-based; conditions: unit assumed
Description: as §1

[6] = system: Pseudomonas aeruginosa A5007; test: Antibacterial activity (MIC), agar dilution method; format: cell-based; conditions: unit assumed
Description: as §1

[7] = system: Staphylococcus aureus ATCC 6538P; test: Antibacterial activity (MIC), agar dilution method; format: cell-based; conditions: unit assumed
Description: as §1

[8] = system: Streptococcus pyogenes 930 CONST; test: Antibacterial activity (MIC), agar dilution method; format: cell-based; conditions: unit assumed
Description: as §1

[9] = system: Streptococcus agalactiae CMX 508; test: Antibacterial activity (MIC), agar dilution method; format: cell-based; conditions: unit assumed
Description: as §1

[10] = system: Providencia stuartii CMX 640; test: Antibacterial activity (MIC), agar dilution method; format: cell-based; conditions: unit assumed
Description: as §1

[11] = system: Pseudomonas aeruginosa DPHD-2862; test: Antibacterial activity (MIC), agar dilution method; format: cell-based; conditions: unit assumed
Description: as §1

[12] = system: Streptococcus pyogenes 2548 INDUC; test: Antibacterial activity (MIC), agar dilution method; format: cell-based; conditions: unit assumed
Description: as §1

[13] = system: Staphylococcus aureus A-5278; test: Antibacterial activity (MIC), agar dilution method; format: cell-based; conditions: unit assumed
Description: as §1

[14] = system: Staphylococcus aureus NCTC 10649; test: Antibacterial activity (MIC), agar dilution method; format: cell-based; conditions: unit assumed
Description: as §1

[15] = system: Acinetobacter calcoaceticus CMX 669; test: Antibacterial activity (MIC), agar dilution method; format: cell-based; conditions: unit assumed
Description: as §1

[16] = system: Staphylococcus aureus 642A; test: Antibacterial activity (MIC), agar dilution method; format: cell-based; conditions: unit assumed
Description: as §1

[17] = system: Enterobacter aerogenes ATCC 13048; test: Antibacterial activity (MIC), agar dilution method; format: cell-based; conditions: unit assumed
Description: as §1

[18] = system: Staphylococcus aureus 1775; test: Antibacterial activity (MIC), agar dilution method; format: cell-based; conditions: unit assumed
Description: as §1

Escherichia coli DC-2 = test: Antibacterial activity (MIC), agar dilution method; format: cell-based; conditions: unit assumed
Description: as §1

Escherichia coli SS = test: Antibacterial activity (MIC), agar dilution method; format: cell-based; conditions: unit assumed
Description: as §1

[19] = system: Staphylococcus aureus CMX 553; test: Antibacterial activity (MIC), agar dilution method; format: cell-based; conditions: unit assumed
Description: as §1

[20] = system: Micrococcus luteus ATCC 4698; test: Antibacterial activity (MIC), agar dilution method; format: cell-based; conditions: unit assumed
Description: as §1

[21] = system: Micrococcus luteus ATCC 9341; test: Antibacterial activity (MIC), agar dilution method; format: cell-based; conditions: unit assumed
Description: as §1

[22] = system: Pseudomonas aeruginosa K799/61; test: Antibacterial activity (MIC), agar dilution method; format: cell-based; conditions: unit assumed
Description: as §1

Escherichia coli JUHL = test: Antibacterial activity (MIC), agar dilution method; format: cell-based; conditions: unit assumed
Description: as §1

[23] = system: Staphylococcus aureus A5177; test: Antibacterial activity (MIC), agar dilution method; format: cell-based; conditions: unit assumed
Description: as §1

[24] = system: Enterococcus faecium ATCC 8043; test: Antibacterial activity (MIC), agar dilution method; format: cell-based; conditions: unit assumed
Description: as §1

Pseudomonas cepacia 2961 = test: Antibacterial activity (MIC), agar dilution method; format: cell-based; conditions: unit assumed
Description: as §1

Escherichia coli KNK 437 = test: Antibacterial activity (MIC), agar dilution method; format: cell-based; conditions: unit assumed
Description: as §1

[25] = system: Pseudomonas aeruginosa K799/WT; test: Antibacterial activity (MIC), agar dilution method; format: cell-based; conditions: unit assumed
Description: as §1

[26] = system: Klebsiella pneumoniae ATCC 8045; test: Antibacterial activity (MIC), agar dilution method; format: cell-based; conditions: unit assumed
Description: as §1

Escherichia coli H560 = test: Antibacterial activity (MIC), agar dilution method; format: cell-based; conditions: unit assumed
Description: as §1

[27] = system: smooth muscle strips isolated from rabbit small intestine; test: Induction of in vitro rabbit duodenal smooth muscle contraction; conditions: for Relative Potency: relative to erythromycin A = 1.0; for EC50: Oryctolagus cuniculus, rabbit duodenum longitudinal muscle, 37° C., pH 7.5, read-out: pED50 (negative logarithm of the concentration producing half of the maximal contraction) (converted)
Description: The compounds of the present invention were tested in vitro for their ability to induce contraction of smooth muscle strips isolated from rabbit small intestine using the following procedure:
Rabbits were sacrificed and 15 cm of duodenum was rapidly removed and placed in ice-cold modified Ringers solution (120 mM sodium chloride, 25 mM sodium bicarbonate, 4.7 mM potassium chloride, 1.25 mM calcium chloride, 1.20 mM magnesium sulfate and 5.6 mM glucose). The longitudinal muscle layer was separated from the circular muscle by blunt dissection and cut into strips of 10×20 mm. Double-folded strips were vertically suspended between two hooks in 10 mL tissue baths with a mechanical preload of 1 g. The upper hook was connected to an […] force transducer, and its displacement was recorded on a Grass polygraph. The tissue baths contained modified Ringers solution at 37° C. and were continuously gassed with 95% oxygen/5% carbon dioxide in order to maintain the pH at 7.5.
After a stabilization period of at least 60 minutes, a contractility dose-response series was performed by adding increasing final concentrations of methacholine (10^-7 M, 10^-6 M and 10^-5 M) in volumes of 100 μL. The bath solutions were replaced at least three times between doses.
After the methacholine dose-response series was completed, a test compound dose response curve was initiated by the same procedure used for the methacholine dose-response series, with at least five concentrations of test compound within the range of 10^-10 M to 10^-4 M. The tissues were washed repeatedly between doses, and the studies were completed by recording the contractile response to 10^-5 M methacholine to ascertain integrity of the muscle preparation. Contractile responses were expressed as percent of maximal contraction. The concentration of test compound which produces half of the maximal contraction (ED50 value) and the negative logarithm of the ED50 value (PED50) were estimated from the dose-response curves.

CC[C@H]1OC(=O)[C@H](C)[C@@H](O[C@H]2C[C@@](C)(OC)[C@@H](O)[C@H](C)O2)[C@H](C)[C@@H](O[C@@H]2O[C@H](C)C[C@H](N(C)C)[C@H]2O)[C@](C)(O)C[C@@H](C)C(=O)[C@H](C)[C@@H](O)[C@]1(C)O [Erythromycin]
1.56 µg/mL: MIC [23]
0.02 µg/mL: MIC [3] | MIC [21]
3.1 µg/mL: MIC [22]
> 100 µg/mL: MIC [6] | MIC [8] | MIC [10] | MIC [11] | MIC [13] | MIC [18] | MIC (Pseudomonas cepacia 2961)
0.05 µg/mL: MIC [5] | MIC [9] | MIC [24]
25 µg/mL: MIC (Escherichia coli H560)
0.1 µg/mL: MIC [7] | MIC [20]
0.2 µg/mL: MIC [4] | MIC [14] | MIC [16] | MIC (Escherichia coli SS) | MIC [19]
100 µg/mL: MIC [2] | MIC [17] | MIC [25]
50 µg/mL: MIC [1] | MIC (Escherichia coli DC-2) | MIC (Escherichia coli JUHL) | MIC (Escherichia coli KNK 437) | MIC [26]
6.2 µg/mL: MIC [12] | MIC [15]

CC[C@H]1OC(=O)[C@H](C)[C@@H](O[C@H]2C[C@@](C)(OC)C[C@H](C)O2)[C@H](C)[C@@H](O[C@@H]2O[C@H](C)C[C@H](N(C)CC)[C@H]2O)[C@@]2(C)CC(C)=C(O2)[C@H](C)[C@@H](O)[C@H]1C [Example 7, 8,9-anhydro-4"-deoxy-3'-N-desmethyl-3'-N-ethylerythromycin B-6,9-hemiketal]
extremely high potency: Endpoint (pED50) could not be obtained, potency in words ([27]; footnote a of Table 2)
50 µg/mL: MIC [3] | MIC [5] | MIC [9] | MIC [12] | MIC [24]
12.5 µg/mL: MIC [21]
100 µg/mL: MIC [4] | MIC [7] | MIC [14] | MIC (Escherichia coli SS) | MIC [23]
> 8000: Relative Potency [27]
> 100 µg/mL: MIC [1] | MIC [2] | MIC [6] | MIC [8] | MIC [10] | MIC [11] | MIC [13] | MIC [15] | MIC [16] | MIC [17] | MIC [18] | MIC (Escherichia coli DC-2) | MIC [19] | MIC [22] | MIC (Escherichia coli JUHL) | MIC (Pseudomonas cepacia 2961) | MIC (Escherichia coli KNK 437) | MIC [25] | MIC [26] | MIC (Escherichia coli H560)

CC[C@H]1OC(=O)[C@H](C)[C@@H](O[C@H]2C[C@@](C)(OC)C[C@H](C)O2)[C@H](C)[C@@H](O[C@@H]2O[C@H](C)C[C@H](N(C)CC)[C@H]2O)[C@@]2(C)C[C@H](C)C(O2)[C@H](C)[C@@H](O)[C@]1(C)O [Example 11, 9-deoxo-3'-N-desmethyl-4",6-dideoxy-8-epi-3'-N-ethyl-6,9-epoxyerythromycin A]
> 100 µg/mL: MIC [1] | MIC [2] | MIC [6] | MIC [7] | MIC [10] | MIC [11] | MIC [13] | MIC [15] | MIC [16] | MIC [17] | MIC [18] | MIC (Escherichia coli DC-2) | MIC (Escherichia coli SS) | MIC [19] | MIC [22] | MIC (Escherichia coli JUHL) | MIC (Pseudomonas cepacia 2961) | MIC (Escherichia coli KNK 437) | MIC [25] | MIC [26] | MIC (Escherichia coli H560)
50 µg/mL: MIC [3] | MIC [12] | MIC [24]
100 µg/mL: MIC [4] | MIC [8] | MIC [14] | MIC [23]
2.88 nM: EC50 [27]
25 µg/mL: MIC [5] | MIC [20] | MIC [21]
6.2 µg/mL: MIC [9]
490: Relative Potency [27]

CC[C@H]1OC(=O)[C@H](C)[C@@H](O[C@H]2C[C@@](C)(OC)C[C@H](C)O2)[C@H](C)[C@@H](O[C@@H]2O[C@H](C)C[C@H](N(C)CC)[C@H]2O)[C@@]2(C)C[C@@H](C)C(O2)[C@H](C)[C@@H](O)[C@]1(C)O [Example 15, 9-deoxo-3'-N-desmethyl-4",6-dideoxy-6,9-epoxy-3'-N-ethylerythromycin A]
6.2 µg/mL: MIC [3] | MIC [9]
50 µg/mL: MIC [12] | MIC [24]
25 µg/mL: MIC [5] | MIC [20] | MIC [21]
100 µg/mL: MIC [4] | MIC [7] | MIC (Escherichia coli SS)
60: Relative Potency [27]
23.4 nM: EC50 [27]
> 100 µg/mL: MIC [1] | MIC [2] | MIC [6] | MIC [8] | MIC [10] | MIC [11] | MIC [13] | MIC [14] | MIC [15] | MIC [16] | MIC [17] | MIC [18] | MIC (Escherichia coli DC-2) | MIC [19] | MIC [22] | MIC (Escherichia coli JUHL) | MIC [23] | MIC (Pseudomonas cepacia 2961) | MIC (Escherichia coli KNK 437) | MIC [25] | MIC [26] | MIC (Escherichia coli H560)
